Laboratory results: patent publication US7166622B2, “Substituted phenylsulfonamide inhibitors of beta amyloid production” (Wyeth, priority 2002, dated 2007)

Columns and labels:
[1] = test system: beta amyloid production; assay: Repressor Release Assay (RRA); type: cell-based; details: Conc 10 μg/ml; for fold induction at 10 µg/mL: read-out: APPI Fold Increase
Summary of the method: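 CHO-K1 cells transiently co-transfected with pRSVO-luc and an APP-lacI construct, replated, then treated in duplicate for 36-48 h at 37 °C, 5% CO2. Compounds diluted in 25 mM Hepes, with Hepes/1% DMSO as diluent control. Luciferase read-out in relative light units; toxicity scored 1 non-toxic, 0 toxic.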

[2] = test system: CHO-K1 cells; assay: Toxicity in RRA (loss of luciferase signal); details: Conc 10 μg/ml; toxicity = loss of signal (<0.75 fold increase)
Description: The beta amyloid inhibitory activity of the compounds of the present invention was determined using the Repressor Release Assay (RRA).
“Fold Increase” refers to the amount of luciferase activity (measured in relative light units) over diluent control. “SEM” refers to the standard error of the mean for fold increase.

[3] = luciferase activity over diluent control

Row | SMILES | fold induction at 10 µg/mL [1, 3] | (%)APPI Toxicity [2] | APPI Fold Increase [1, 3] | APPI % of Example #98 ([1]; relative to Example 98)
1 | CC[C@H](C)[C@H](NS(=O)(=O)c1ccc(Cl)cc1)C(O)c1ccc(N(C)C)cc1 (stereo partly drawn) [Example 183, 4-chloro-N-{(1S,2S)-1-[[4-(dimethylamino)phenyl](hydroxy)methyl]-2-methylbutyl}benzenesulfonamide] | 4.49 | 1 (1=non-toxic) |  | 
2 | CC[C@H](C)[C@H](NS(=O)(=O)c1ccc(Cl)cc1)C(O)c1cccc2ccccc12 (stereo partly drawn) [Example 184, 4-chloro-N-{(1S,2S)-1-[hydroxy(1-naphthyl)methyl]-2-methylbutyl}benzenesulfonamide] | 1.7 | 1 (1=non-toxic) |  | 
3 | CC[C@H](C)[C@H](NS(=O)(=O)c1cccc(Cl)c1)C(C)O (stereo partly drawn) [Example 185, 3-chloro-N-[(1S,2S)-1-(1-hydroxyethyl)-2-methylbutyl]benzenesulfonamide] | 1.51 | 1 (1=non-toxic) |  | 
4 | CC[C@H](C)[C@H](NS(=O)(=O)c1cccc(Cl)c1)C(O)C1CCCC1 (stereo partly drawn) [Example 186, 3-chloro-N-{(1S,2S)-1-[cyclopentyl(hydroxy)methyl]-2-methylbutyl}benzenesulfonamide] | 3.86 | 1 (1=non-toxic) |  | 
5 | CCCCCCC(O)[C@@H](NS(=O)(=O)c1cccc(Cl)c1)[C@@H](C)CC (stereo partly drawn) [Example 187, 3-chloro-N-{(1S)-2-hydroxy-1-[(1S)-1-methylpropyl]octyl}benzenesulfonamide] | 9.02 | 1 (1=non-toxic) |  | 
6 | CCCCCC(O)[C@@H](NS(=O)(=O)c1cccc(Cl)c1)[C@@H](C)CC (stereo partly drawn) [Example 188, 3-chloro-N-{(1S)-2-hydroxy-1-[(1S)-1-methylpropyl]heptyl}benzenesulfonamide] | 3.54 | 1 (1=non-toxic) |  | 
7 | CCCCC(O)[C@@H](NS(=O)(=O)c1cccc(Cl)c1)[C@@H](C)CC (stereo partly drawn) [Example 189, 3-chloro-N-{(1S)-2-hydroxy-1-[(1S)-1-methylpropyl]hexyl}benzenesulfonamide] | 1.51 | 1 (1=non-toxic) |  | 
8 | CC[C@H](C)[C@H](NS(=O)(=O)c1cccc(Cl)c1)C(O)C(C)C (stereo partly drawn) [Example 190, 3-chloro-N-{(1S)-2-hydroxy-3-methyl-1-[(1S)-1-methylpropyl]butyl}benzenesulfonamide] | 1.76 | 1 (1=non-toxic) |  | 
9 | CC[C@H](C)[C@H](NS(=O)(=O)c1cccc(Cl)c1)C(O)C(C)(C)C (stereo partly drawn) [Example 191, 3-chloro-N-{(1S)-2-hydroxy-3,3-dimethyl-1-[(1S)-1-methylpropyl]butyl}benzenesulfonamide] | 2.42 | 1 (1=non-toxic) |  | 
10 | CC[C@H](C)[C@H](NS(=O)(=O)c1cccc(Cl)c1)C(O)CC(C)C (stereo partly drawn) [Example 192, 3-chloro-N-{(1S)-2-hydroxy-4-methyl-1-[(1S)-1-methylpropyl]pentyl}benzenesulfonamide] | 2.21 | 1 (1=non-toxic) |  | 
11 | C=CC(O)[C@@H](NS(=O)(=O)c1cccc(Cl)c1)[C@@H](C)CC (stereo partly drawn) [Example 193, 3-chloro-N-{(1 S)-2-hydroxy-1-[(1S)-1-methylpropyl]-3-butenyl}benzenesulfonamide] | 1.78 | 1 (1=non-toxic) |  | 
12 | C=CCC(O)[C@@H](NS(=O)(=O)c1cccc(Cl)c1)[C@@H](C)CC (stereo partly drawn) [Example 194, 3-chloro-N-{(1S)-2-hydroxy-1-[(1S)-1-methylpropyl]-4-pentenyl}benzenesulfonamide] | 3.42 | 1 (1=non-toxic) |  | 
13 | CCC(O)[C@@H](NS(=O)(=O)c1cccc(Cl)c1)[C@@H](C)CC (stereo partly drawn) [Example 195, 3-chloro-N-{(1S)-2-hydroxy-1-[(1S)-1-methylpropyl]butyl}benzenesulfonamide] | 2.16 | 1 (1=non-toxic) |  | 
14 | CC[C@H](C)[C@H](NS(=O)(=O)c1cccc(Cl)c1)C(O)c1ccc(Cl)cc1 (stereo partly drawn) [Example 196, 3-chloro-N-{(1S,2S)-1-[(4-chlorophenyl)(hydroxy)methyl]-2-methylbutyl}benzenesulfonamide] | 1.78 | 1 (1=non-toxic) |  | 
15 | CC[C@H](C)[C@H](NS(=O)(=O)c1cccc(Cl)c1)C(O)C=C(C)C (stereo partly drawn) [Example 197, 3-chloro-N-{(1S)-2-hydroxy-4-methyl-1-[(1S)-1-methylpropyl]-3-pentenyl}benzenesulfonamide] | 1.54 | 1 (1=non-toxic) |  | 
16 | CC[C@H](C)[C@H](NS(=O)(=O)c1cccc(Cl)c1)C(O)c1ccc(OC)cc1 (stereo partly drawn) [Example 198, 3-chloro-N-{(1S,2S)-1-[hydroxy(4-methoxyphenyl)methyl]-2-methylbutyl}benzenesulfonamide] | 1.54 | 1 (1=non-toxic) |  | 

Row | SMILES | fold induction at 10 µg/mL [1, 3] | (%)APPI Toxicity [2] | APPI Fold Increase [1, 3] | APPI % of Example #98 ([1]; relative to Example 98)
17 | CC[C@H](C)[C@H](NS(=O)(=O)c1cccc(Cl)c1)C(O)CCC1OCCCO1 (stereo partly drawn) [Example 199, 3-chloro-N-{(1S)-4-(1,3-dioxan-2-yl)-2-hydroxy-1-[(1S)-1-methylpropyl]butyl}benzenesulfonamide] | 1.61 | 1 (1=non-toxic) |  | 
18 | C=CCCC(O)[C@@H](NS(=O)(=O)c1cccc(Cl)c1)[C@@H](C)CC (stereo partly drawn) [Example 200, 3-chloro-N-{(1S)-2-hydroxy-1-[(1S)-1-methylpropyl]-5-hexenyl}benzenesulfonamide] | 1.85 | 1 (1=non-toxic) |  | 
19 | CC[C@H](C)[C@H](NS(=O)(=O)c1cccc(Cl)c1)C(O)c1ccc(SC)cc1 (stereo partly drawn) [Example 201, 3-chloro-N-((1S,2S)-1-{hydroxy[4-(methylsulfanyl)phenyl]methyl}-2-methylbutyl)benzenesulfonamide] | 2.45 | 1 (1=non-toxic) |  | 
20 | CCCCCCC(O)[C@@H](NS(=O)(=O)c1ccccc1F)[C@@H](C)CC (stereo partly drawn) [Example 203, 2-fluoro-N-{(1S)-2-hydroxy-1-[(1S)-1-methylpropyl]octyl}benzenesulfonamide] | 3.47 | 1 (1=non-toxic) |  | 
21 | CCCCCC(O)[C@@H](NS(=O)(=O)c1ccccc1F)[C@@H](C)CC (stereo partly drawn) [Example 204, 2-fluoro-N-{(1S)-2-hydroxy-1-[(1S)-1-methylpropyl]heptyl}benzenesulfonamide] | 3.73 | 1 (1=non-toxic) |  | 
22 | CCCCC(O)[C@@H](NS(=O)(=O)c1ccccc1F)[C@@H](C)CC (stereo partly drawn) [Example 205, 2-fluoro-N-{(1S)-2-hydroxy-1-[(1S)-1-methylpropyl]hexyl}benzenesulfonamide] | 1.72 | 1 (1=non-toxic) |  | 
23 | C=CC(O)[C@@H](NS(=O)(=O)c1ccccc1F)[C@@H](C)CC (stereo partly drawn) [Example 206, 2-fluoro-N-{(1S)-2-hydroxy-1-[(1S)1-methylpropyl]-3-butenyl}benzenesulfonamide] | 1.9 | 1 (1=non-toxic) |  | 
24 | CC[C@H](C)[C@H](NS(=O)(=O)c1ccccc1F)C(O)c1ccc(F)cc1 (stereo partly drawn) [Example 207, 2-fluoro-N-{(1S,2S)-1-[(4-fluorophenyl) (hydroxy)methyl]-2-methylbutyl}benzenesulfonamide] | 1.81 | 1 (1=non-toxic) |  | 
25 | CC[C@H](C)[C@H](NS(=O)(=O)c1ccccc1F)C(O)c1ccc(Cl)cc1 (stereo partly drawn) [Example 208, N-{(1S,2S)-1-[(4-chlorophenyl) (hydroxy)methyl]-2-methylbutyl}-2-fluorobenzenesulfonamide] | 2.01 | 1 (1=non-toxic) |  | 
26 | CC[C@H](C)[C@H](NS(=O)(=O)c1ccccc1F)C(O)c1ccc(OC)cc1 (stereo partly drawn) [Example 209, 2-fluoro-N-{(1S,2S)-1-[hydroxy(4-methoxyphenyl)methyl]-2-methylbutyl} benzenesulfonamide] |  | 1 (1=non-toxic) | 1.81 fold | 88.04%
27 | CC[C@H](C)[C@H](NS(=O)(=O)c1ccccc1F)C(O)CCC1OCCCO1 (stereo partly drawn) [Example 210, N-{(1S)-4-(1,3-dioxan-2-yl)-2-hydroxy-1-[(1S)-1-methylpropyl]butyl}-2-fluorobenzenesulfonamide] | 1.68 | 1 (1=non-toxic) |  | 
28 | CC[C@H](C)[C@H](NS(=O)(=O)c1ccc(Br)cc1)C(C)(C)O [Example 211] | 2.09 | 1 (1=non-toxic) |  | 
29 | CCCCC(O)(CCCC)[C@@H](NS(=O)(=O)c1ccc(Br)cc1)[C@@H](C)CC [Example 213, 4-bromo-N-{(1S)-2-butyl-2-hydroxy-1-[(1S)-1-methylpropyl]hexyl}benzenesulfonamide] | 3.03 | 1 (1=non-toxic) |  | 
30 | CC[C@H](C)[C@H](NS(=O)(=O)c1ccc(Br)cc1)C(O)(c1ccccc1)c1ccccc1 [Example 215, 4-bromo-N-{(1S,2S)-1-[hydroxy(diphenyl)methyl]-2-methylbutyl}benzenesulfonamide] | 1.65 | 1 (1=non-toxic) |  | 
31 | CC[C@H](C)[C@H](NS(=O)(=O)c1ccc(Br)cc1)C(O)(CC)CC [Example 217, 4-bromo-N-{(1S)-2-ethyl-2-hydroxy-1-[(1S)-1-methylpropyl]butyl}benzenesulfonamide] | 1.68 | 1 (1=non-toxic) |  | 
32 | CC[C@H](C)[C@H](NS(=O)(=O)c1ccc(Br)cc1)C(O)(c1ccc(Cl)cc1)c1ccc(Cl)cc1 [Example 218, N-{(1S,2S)-1-[bis(4-chlorophenyl) (hydroxy)methyl]-2-methylbutyl}-4-bromobenzenesulfonamide] | 1.55 | 1 (1=non-toxic) |  | 
